Data as given in ChEMBL document CHEMBL1147452, “A new approach to the synthesis of optically active alkylated adenine derivatives” (Bioorg Med Chem Lett, 2004).

How the values were obtained:
[1] = Cytotoxic concentration at which cell viability was reduced by 50%; format: functional
Cowpox virus = experiment: Inhibitory concentration required against Cowpox virus in Vero cell culture; format: functional, organism-based
Vaccinia virus = experiment: Inhibitory concentration required against vaccinia virus in Vero cell culture; format: functional, organism-based; details: Orthopoxvirus vaccinia
Monkeypox virus = experiment: Inhibitory concentration required against Monkeypox virus in Vero cell culture; format: functional, organism-based
Variola virus = experiment: Inhibitory concentration required against replication of small pox virus (strain India 3a) in Vero cells; format: functional, organism-based

Nc1ncnc2c1ncn2C[C@H]1COP(=O)(O)CO1
CC50 [1]: > 350 µM
IC50 (Cowpox virus): 61 µM
IC50 (Vaccinia virus): 41 µM
IC50 (Monkeypox virus): 48 µM

Nc1ncnc2c1ncn2C[C@H](O)C(=O)O
IC50 (Variola virus): 91 µM

Nc1ncnc2c1ncn2C[C@@H]1COP(=O)(O)CO1
CC50 [1]: > 350 µM
IC50 (Cowpox virus): > 350 µM
IC50 (Vaccinia virus): > 350 µM
IC50 (Monkeypox virus): > 350 µM

COC(CO)O[C@@H](CO)Cn1cnc2c(N)ncnc21 (some centres undefined)
IC50 (Variola virus): 62 µM

Nc1ncnc2c1ncn2C[C@@H](O)CO
CC50 [1]: > 500 µM
IC50 (Cowpox virus): > 500 µM
IC50 (Vaccinia virus): > 500 µM
IC50 (Monkeypox virus): > 500 µM

Nc1ncnc2c1ncn2C[C@H](O)CO [(S)-DHPA]
CC50 [1]: > 500 µM
IC50 (Variola virus): 41 µM
IC50 (Cowpox virus): 49 µM
IC50 (Vaccinia virus): 34 µM
IC50 (Monkeypox virus): 54 µM
